Biological target: T1, polycystin-2 channels (Mus musculus, UniProt O35245, DEL771-772)
T1 construct: the mouse channel orthologue under endogenous expression in the kidney collecting duct; endogenous in cells; host or cells: primary inner medullary collecting duct (pIMCD) cells of ARL13B-EGFP mice
T1 sequence (O35245 with tags, fused parts or gaps DEL771-772): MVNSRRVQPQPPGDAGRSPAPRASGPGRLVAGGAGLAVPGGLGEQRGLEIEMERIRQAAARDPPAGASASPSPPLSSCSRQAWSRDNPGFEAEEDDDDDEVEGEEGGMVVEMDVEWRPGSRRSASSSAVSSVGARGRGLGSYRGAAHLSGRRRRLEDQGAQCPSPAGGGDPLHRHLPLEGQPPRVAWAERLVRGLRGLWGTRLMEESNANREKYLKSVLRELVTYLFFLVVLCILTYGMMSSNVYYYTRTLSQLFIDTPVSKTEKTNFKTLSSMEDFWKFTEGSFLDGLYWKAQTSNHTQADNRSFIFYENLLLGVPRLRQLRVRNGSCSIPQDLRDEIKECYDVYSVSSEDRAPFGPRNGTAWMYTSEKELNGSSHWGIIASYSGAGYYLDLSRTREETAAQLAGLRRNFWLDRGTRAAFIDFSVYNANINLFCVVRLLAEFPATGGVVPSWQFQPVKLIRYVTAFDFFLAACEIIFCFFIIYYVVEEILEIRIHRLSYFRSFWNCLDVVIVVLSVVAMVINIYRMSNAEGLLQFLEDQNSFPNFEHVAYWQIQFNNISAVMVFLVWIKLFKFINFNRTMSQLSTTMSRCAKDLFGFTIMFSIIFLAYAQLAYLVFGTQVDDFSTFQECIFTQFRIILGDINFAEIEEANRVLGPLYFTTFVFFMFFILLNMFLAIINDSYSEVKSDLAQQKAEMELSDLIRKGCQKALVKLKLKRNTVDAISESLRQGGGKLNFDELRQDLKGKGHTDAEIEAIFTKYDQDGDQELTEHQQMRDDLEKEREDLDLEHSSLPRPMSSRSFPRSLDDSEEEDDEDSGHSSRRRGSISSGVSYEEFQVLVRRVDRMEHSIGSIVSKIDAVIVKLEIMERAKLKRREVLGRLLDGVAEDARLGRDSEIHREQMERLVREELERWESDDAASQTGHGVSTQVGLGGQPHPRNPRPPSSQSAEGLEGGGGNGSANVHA
Assay: Inside-out cilia patch of pIMCD cells, calcium opening of polycystin-2 channels
Assay type: cell-based
Details: Pkd2del-Z/delZ mice; read-out: EC50, potency of calcium opening polycystin-2 channels
Procedure: Cell culture of primary inner medullary collecting duct cells and immortalized cell lines. Primary inner medullary collecting ducts cells (pIMCD) were isolated from WT or Pkd2^del-Z/del-Z mice co-expressing the ARL13B-EGFP cilia reporter using the previously described method (Liu et al., 2018). Briefly, inner medullae were removed from the kidney and disassociated using a Dulbecco's phosphate buffered solution (DPBS) containing 2 mg/ml collagenase A and 1 mg/ml hyaluronidase. After mechanical disassociation on ice, medullary cells were cultured in Dulbecco's modified essential medium (DMEM) supplemented with 10% fetal bovine serum (FBS) and 100 units/ml penicillin/100 μg/ml streptomycin. Cilia were patched from cells within 6 days after isolation and within one passage. HEK PKD2^Null cell lines were generated using the CRISPR/Cas9 gene editing kit available from Addgene and authenticated using PCR analysis, as previously described (Liu et al., 2018). […]
Electrophysiology. The electrophysiologist was blinded by a third party in the laboratory, where test groups were assigned a letter to conceal the genetic identity of the cells being evaluated. […] Ciliary ion currents were recorded using borosilicate glass electrodes polished to resistances of 14-23 MΩ using the cilium patch method previously described (Vien et al., 2020). Single channel currents measured in the inside-out configuration were recorded in symmetrical sodium concentrations. […] Calcium was buffered with 5 EGTA (ethylene glycol-bis(o-aminoethyl ether)-N,N,N′,N′-tetraacetic acid), 5 Na4-BAPTA (Glycine, N, N′-[1,2-ethanediylbis(oxy-2,1-phenylene)]bis[N-(carboxymethyl)]-,tetrasodium) and 0.5 EDTA […]; free calcium was calculated using Maxchilator and titration of 1 M CaCl2) solution (Bers et al., 2010); pH was adjusted to 7.3 using NaOH. […] Whole cell currents used to measure CDD were also recorded in symmetrical sodium concentration, placing the internal recording solution in the pipette electrode and the external recording solution in the bath. […]

Structure (SMILES): [Ca+2] [Ca^2+, calcium]
- EC50: 1400 ± 300 nM
